Measurements reported in patent publication US20070207138A1, “S/O Type Pharmaceutical Preparation and Method for Producing the Same” (ASPION CO., LTD., priority 2004, published 2007).
Values joined by “and” are separate entries in the source; they are usually repeats but may differ in a detail not shown here. Identical values can stand only once. “Also recorded” adds a separate entry of the source.

What was measured:
[1] = Plasma DFNa concentration in the gastric mucosa stimulus test; type: in vivo, male Wistar rats; conditions: DFNa 50 mg/kg body weight by intrastomach catheter, blood after 3.5 hours
Description: (§1) Gastric mucosa stimulus test for the S/O type complex suspension obtained in Production example 1 was carried out. Specifically, according to the method disclosed by Tsurumi et al. (Folia Pharmacol. Japan, 69, pp.319-334 (1973)), five male Wistar rats having an average body weight of 140 g were fasted for 18 hours in advance, and were administered so that the dose amount of DFNa was 50 mg/kg body weight by means of an intrastomach catheter for rat. After 3.5 hours, the rats were sacrificed and dissected, and the condition of the gastric mucosa was observed. Also blood collected after 3.5 hours was centrifuged to obtain a plasma sample, and DFNa concentration in the plasma was determined by HPLC.

Blood concentration test = type: in vivo; conditions: beagle dog fasted overnight, oral, DFNa 6 mg/kg body weight
gastric mucosa = test: Gastric mucosa stimulus test
Description: as §1

O=C(O)Cc1ccccc1Nc1c(Cl)cccc1Cl [DFNa solution, diclofenac sodium]
Plasma DFNa concentration, Average ([1]; group average, rat): 6.21 ± 2.03
Plasma DFNa concentration ([1]; individual rat): 3.99 and 7.98 and 6.64
Area under medicine concentration curve (Blood concentration test): 62.8 µg·h/mL
Maximum blood concentration (Blood concentration test): 26.4 µg/mL
Maximum blood concentration reach time (Blood concentration test): 1 h
half-life (Blood concentration test; serum): 58.8 min
Condition of gastric mucosa (gastric mucosa; individual rat, DFNa 50 mg/kg body weight by intrastomach catheter, observed after 3.5 hours): Dotted bleeding; also recorded: Gastric ulcer
abnormality in gastric mucosa (gastric mucosa; rat, DFNa 50 mg/kg body weight): clear abnormality is observed
